From patent US20240270715A1, “INHIBITORS OF TRANSGLUTAMINASES” (ZEDIRA GMBH, priority 2021, published 2024) come the findings set out here.

Some results are limits rather than exact numbers.

Data set [1] in a line: Log D by shake flask method (octanol / PBS pH 7.4, HPLC). The format is physicochemical. To be noted: octanol / PBS pH 7.4, shake flask; read-out: logD. How it is done:
In order to classify the inventive compounds according to their lipophilicity, Log D values (distribution coefficient) were determined by means of the well-established shake flask method, measuring the partition of a compound between an octanol and phosphate-buffered saline (PBS, pH 7.4) by HPLC.
Compounds with a moderate lipophilicity (Log D values from 0 to 3) are usually advantaged for oral absorption, being in balance between solubility and permeability. However, sophisticated formulation of a compound might improve oral bioavailability for highly lipophilic compounds.

For data set [2], the target named is T1, recombinant human transglutaminase 2 (Homo sapiens, UniProt P21980).
T1 sequence (P21980 1-687): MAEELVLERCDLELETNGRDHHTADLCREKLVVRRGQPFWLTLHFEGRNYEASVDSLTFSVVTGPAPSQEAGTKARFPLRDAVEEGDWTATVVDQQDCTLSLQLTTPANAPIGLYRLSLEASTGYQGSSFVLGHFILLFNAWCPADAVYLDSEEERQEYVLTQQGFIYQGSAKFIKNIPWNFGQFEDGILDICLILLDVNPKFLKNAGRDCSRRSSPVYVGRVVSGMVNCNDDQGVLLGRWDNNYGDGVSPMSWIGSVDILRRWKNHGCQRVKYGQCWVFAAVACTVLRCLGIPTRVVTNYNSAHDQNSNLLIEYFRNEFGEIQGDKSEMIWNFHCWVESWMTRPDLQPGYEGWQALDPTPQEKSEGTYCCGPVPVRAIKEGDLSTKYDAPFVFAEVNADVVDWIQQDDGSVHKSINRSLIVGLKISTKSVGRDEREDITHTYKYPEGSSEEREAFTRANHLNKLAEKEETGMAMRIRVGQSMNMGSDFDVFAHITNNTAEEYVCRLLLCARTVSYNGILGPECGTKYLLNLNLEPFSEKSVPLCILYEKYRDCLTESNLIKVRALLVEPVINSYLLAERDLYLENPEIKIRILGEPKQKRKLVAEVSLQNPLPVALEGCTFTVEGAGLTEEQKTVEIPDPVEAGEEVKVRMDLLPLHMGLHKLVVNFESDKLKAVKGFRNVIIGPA
Put plainly: Transglutaminase assay: incorporation of dansylcadaverine into dimethylcasein (DCC-assay). The format is biochemical. To be noted: recombinant human TG2 10 nM, dansylcadaverine/dimethylcasein; read-out: IC50 TG2. How it is done: To illustrate the advantage of branched alkyl moieties over aromatic moieties, we refer to reference compounds Ref. 2 (ZED1227, U.S. Pat. No. 9,434,763 B2) and Ref. 3 (A8, ZED1047). Inhibition data were determined using the classical fluorescent transamidation assay (dansylcadaverine incorporation into methylated casein, DCC-assay) as described [Büchold, C.; Hils, M.; Gerlach, U.; Weber, J.; Pelzer, C.; Heil, A.; Aeschlimann, D.; Pasternack, R. Features of ZED1227: The First-In-Class Tissue Transglutaminase Inhibitor Undergoing Clinical Evaluation for the Treatment of Celiac Disease. Cells 2022, 11, 1667. https://doi.org/10.3390/cells11101667]. Casein is one of the best known high molecular weight (24 kDa) protein substrates for transglutaminases. Please note, the IC50 value of Ref. 3 (A8) published in U.S. Pat. No. 9,434,763 B2 cannot be compared to the present data, relying on a fluorogenic isopeptidase assay.
To this extent, inhibition data were determined using the classical fluorescent transamidation assay (dansylcadaverine incorporation into methylated casein, DCC-assay) as described in Büchold et al. [Büchold, C.; Hils, M.; Gerlach, U.; Weber, J.; Pelzer, C.; Heil, A.; Aeschlimann, D.; Pasternack, R. Features of ZED1227: The First-In-Class Tissue Transglutaminase Inhibitor Undergoing Clinical Evaluation for the Treatment of Celiac Disease. Cells 2022, 11, 1667. https://doi.org/10.3390/cells11101667]. Casein is one of the best known high molecular weight (24 kDa) protein substrates for transglutaminases. Inhibition data of the inventive compounds was compared with inhibition of compounds disclosed in U.S. Pat. No. 9,434,763 B2, particularly, compound A8, which is denoted herein as Reference 3. It is noteworthy that the IC50 values of compounds A8 published in U.S. Pat. No. 9,434,763 B2 and E16 from U.S. Pat. No. 11,072,634 B2 cannot be compared to the present data, relying on a fluorogenic isopeptidase assay.
For the determination of potency of inhibitors against tissue transglutaminase, the incorporation of dansylcadaverine into dimethylcasein (Zedira product T036, Lorand et al., Anal Biochem, 1971, 44:221-31) was measured using recombinant human transglutaminase 2 (Zedira Product T022).
The tissue transglutaminase is diluted in buffer (50 mM Tris-HCl, 7.5 mM CaCl2, 150 mM NaCl, pH=7.4). The final concentration of TG2 in the assay is 10 nM.
A 10 mM inhibitor stock solution is prepared in DMSO, and from this a serial 1:2-fold dilution series is prepared also in DMSO. Each of the initial dilutions is subsequently diluted 1:50-fold with buffer (50 mM Tris-HCl, 7.5 mM CaCl2, 150 mM NaCl, pH=7.4) to yield the final working dilutions containing 2% (v/v) DMSO. 15 μl of inhibitor working dilution are added per well of a 96 well microtiter plate. As control, 15 μl of a 2% (v/v) DMSO solution prepared using the buffer mentioned above are added per well.
Immediately before starting the assay, 600 μl transglutaminase working solution are added to 11.4 ml assay buffer (50 mM Tris-HCl, 10 mM CaCl2, 10 mM glutathione, 2.5% glycerol, 16.7 μM dansylcadaverine, 4 μM N,N-dimethylcasein, 200 mM NaCl, pH=8.0). 285 μl of this reaction mix are added per well containing the inhibitor.
Increase in fluorescence is measured using λex=330 nm and λemG=500 nm at […] for 30 min. A slope of the increase in fluorescence between 20 and 30 min is calculated for determination of the IC50 value (inhibitor concentration at which 50% of the initial activity is blocked).
Analysis of enzymatic activity is performed by calculation of the slope of an increase in fluorescence intensity. IC50 values are calculated by plotting the enzymatic activity (as percentage from control containing 2% DMSO instead of inhibitor) against the inhibitor concentration. IC50 is defined as the inhibitor concentration blocking 50% of initial enzyme activity.

A short description of data set [3]: Caco-2 permeability assay (CacoReady kit). As to conditions: human. The format is in vitro ADME. How it is done:
Permeability coefficients (Papp values) were obtained from Caco-2 barrier studies predicting oral/intestinal bioavailability of the tested compounds. The assays were performed by using CacoReady™ ready-to-use kits from ReadyCell according to the manufacturers protocol.
A general note: Passage across Caco-2 layers is used to estimate intestinal permeability.

In the case of `CCNC(=O)C(=O)CC[C@H](NC(=O)c1cncn1C)C(=O)Nc1cccn(CC(=O)NC23CC4CC(CC(C)(C4)C2)C3)c1=O` [Compound I-25, (S)-N1-ethyl-N6-(1-(2-(3-methyladamantane-1-amino)-2-oxoethyl)-2-oxo-1,2-dihydropyridin-3-yl)-5-(1-methyl-1H-imidazole-5-carboxamido)-2-oxohexanediamide], the log distribution coefficient (logD) (as a rule, the decadic logarithm of the distribution of all forms, ionised or not, between an organic phase and buffer at a given pH) in data set [1] lay within 1 to 3. Further, the IC50 (as a rule, the concentration needed to halve the response being measured) in data set [2] lay in the range of 150 to 600 nM. In data set [3], the Papp (usually the rate of passage across a membrane or cell layer, normalised by area and donor concentration) was under 1 ×10⁻⁶ cm/s.
The like results for `CCNC(=O)C(=O)CC[C@H](NC(=O)c1cccnc1)C(=O)Nc1cccn(CC(=O)NCCc2ccccc2)c1=O` [Ref. 4, reference compound] were, in that order, under 1, 3500 to 10000 nM and under 1 ×10⁻⁶ cm/s.
The like results for `CCNC(=O)C(=O)CC[C@H](NC(=O)c1cnsn1)C(=O)Nc1cccn(CC23CC4CC(CC(Br)(C4)C2)C3)c1=O` [Compound I-83, (S)-N1-(1-((3-bromo-1-adamantyl)methyl)-2-oxo-1,2-dihydropyridin-3-yl)-N6-ethyl-5-oxo-2-(1,2,5-thiadiazole-3-carboxamido)hexanediamide] were, in that order, 3 to 5, 150 to 600 nM and under 1 ×10⁻⁶ cm/s.
On the same counts, the results for `CCNC(=O)C(=O)CC[C@H](NC(=O)c1ncns1)C(=O)Nc1cccn(CC(=O)NC23CC(C2)C3)c1=O` [Compound I-118, (S)-N1-(1-(2-(bicyclo[1.1.1]pentan-1-ylamino)-2-oxoethyl)-2-oxo-1,2-dihydropyridin-3-yl)-N6-ethyl-5-oxo-2-(1,2,4-thiadiazole-5-carboxamido)hexanediamide] are under 1, 150 to 600 nM and under 1 ×10⁻⁶ cm/s.
As to `CCNC(=O)C(=O)CC[C@H](NC(=O)c1c[nH]cc1C(C)(C)C)C(=O)Nc1cccn(CCC23CC4CC(CC(C4)C2)C3)c1=O` [Compound I-85], the logD in data set [1] lay within 3 to 5. For the same compound, the IC50 in data set [2] fell in the range of 600 to 3500 nM. In addition, the Papp in data set [3] was 1 to 10 ×10⁻⁶ cm/s.
Take `CCNC(=O)C(=O)CC[C@H](NC(=O)c1c(C)nc2sccn12)C(=O)Nc1cccn(CC(=O)N(C)C2C3CC4CC(C3)CC2C4)c1=O` (stereo partly drawn) [Compound I-67, (S)-N1-ethyl-N6-(1-(2-(2-adamantyl(methyl)amino)-2-oxoethyl)-2-oxo-1,2-dihydropyridin-3-yl)-5-(6-methylimidazo[2,1-b]thiazole-5-carboxamido)-2-oxohexanediamide]: the logD in data set [1] was in the range of 3 to 5. Moreover, the IC50 in data set [2] lay within 600 to 3500 nM. Moreover, the Papp in data set [3] is under 1 ×10⁻⁶ cm/s.
Consider `CCNC(=O)C(=O)CC[C@H](NC(=O)c1cnc(NC(C)=O)s1)C(=O)Nc1cccn(CC(=O)NC23CC(C2)C3)c1=O` [Compound I-110, (S)-2-(2-acetamidothiazole-5-carboxamido)-N1-(1-(2-(bicyclo[1.1.1]pentan-1-ylamino)-2-oxoethyl)-2-oxo-1,2-dihydropyridin-3-yl)-N6-ethyl-5-oxohexanediamide], for which, in data set [1], the logD was under 1. In addition, the IC50 in data set [2] fell in the range of 600 to 3500 nM. The compound also returned a Papp in data set [3] of under 1 ×10⁻⁶ cm/s.
The like results for `CCNC(=O)C(=O)CC[C@H](NC(=O)c1cccnc1)C(=O)Nc1cccn(CC(=O)NC23CC4CC(CC(C4)C2)C3)c1=O` [Compound I-121, (S)-N1-ethyl-N6-(1-(2-(3,5-dimethyladamantane-1-amino)-2-oxoethyl)-2-oxo-1,2-dihydropyridin-3-yl)-5-(nicotinamido)-2-oxohexanediamide] were, in that order, under 1, under 150 nM and under 1 ×10⁻⁶ cm/s.
The like results for `CCNC(=O)C(=O)CC[C@H](NC(=O)c1cn(C)nn1)C(=O)Nc1cccn(CC(=O)N[C@@H]2C[C@H]3CC[C@]2(C)C3(C)C)c1=O` [Compound I-75, (S)-N1-ethyl-5-(1-methyl-1H-1,2,3-triazole-4-carboxamido)-2-oxo-N6-(2-oxo-1-(2-oxo-2-((1R,2R,4R)-1,7,7-trimethylbicyclo[2.2.1]heptan-2-ylamino)ethyl)-1,2-dihydropyridin-3-yl)hexanediamide] were, in that order, under 1, 150 to 600 nM and 1 to 10 ×10⁻⁶ cm/s.
On to `CCNC(=O)C(=O)CC[C@H](NC(=O)c1cc2cccnc2nc1C)C(=O)Nc1cccn(CC(=O)NC23CC(C2)C3)c1=O` [Compound I-103, (S)-N1-(1-(2-(bicyclo[1.1.1]pentan-1-ylamino)-2-oxoethyl)-2-oxo-1,2-dihydropyridin-3-yl)-N6-ethyl-2-(2-methyl-1,8-naphthyridine-3-carboxamido)-5-oxohexanediamide], for which the logD in data set [1] was under 1. Further, the IC50 in data set [2] lay in the range of 600 to 3500 nM. Further, the Papp in data set [3] was under 1 ×10⁻⁶ cm/s.
On the same counts, the results for `CCNC(=O)C(=O)CC[C@H](NC(=O)c1cncn1C)C(=O)Nc1cccn(CC(=O)NC23CC4CC(CC(O)(C4)C2)C3)c1=O` [Compound I-7, (S)-N1-ethyl-N6-(1-(2-(3-hydroxyadamantane-1-amino)-2-oxoethyl)-2-oxo-1,2-dihydropyridin-3-yl)-5-(1-methyl-1H-imidazole-5-carboxamido)-2-oxohexanediamide] are under 1, 600 to 3500 nM and under 1 ×10⁻⁶ cm/s.
On the same counts, the results for `CCNC(=O)C(=O)CC[C@H](NC(=O)c1oc2ccccc2c1C)C(=O)Nc1cccn(CC(=O)NC2C3CC4CC(C3)CC2C4)c1=O` (stereo partly drawn) [Compound I-31, (S)-N1-ethyl-N6-(1-(2-(2-adamantylamino)-2-oxoethyl)-2-oxo-1,2-dihydropyridin-3-yl)-5-(3-methylbenzofuran-2-carboxamido)-2-oxohexanediamide] are 3 to 5, under 150 nM and 1 to 10 ×10⁻⁶ cm/s.
